This is an account of results in the NIST ThermoML archive (doi:10.1021/je700486g).

Each structure is given as a SMILES string. ± gives the expanded uncertainty stated by the source.

The conditions of this data set: Crystal; visual observation.

For `CC(=O)Oc1ccccc1C(=O)O` [2-acetoxybenzoic acid], the Normal melting temperature was found to be 135.4 ± 1.1 °C.

`O=C(O)c1ccccc1O` [2-hydroxybenzoic acid]: the Normal melting temperature came out at 159 ± 1 °C. For `O=C(O)c1ccccc1` [benzoic acid] the value was 122 ± 1 °C; for `c1ccc2c(c1)-c1cccc3cccc-2c13` [fluoranthene], 108.4 ± 3 °C.
